Values of other authors as cited in US20160120797A1, “ANTI-ACNE COMPOSITION AND METHODS OF USE THEREOF” (priority 2014, published 2016).

Key:
[1] = test system: L. monocytogenes
[2] = test system: E. Coli

Q: Which anti-bacterial activity [1] does the source give for `O=C(O)Cc1ccccc1Nc1c(Cl)cccc1Cl` [Diclofenac sodium, 2-(2-(2,6-dichlorophenylamino)phenyl)acetic acid] here?
A: The anti-bacterial activity was “anti-bacterial activity”.

Q: What about the anti-bacterial activity [2] of the same compound?
A: Its anti-bacterial activity is “anti-bacterial activity”.
